Experimental data reported in US20180327354A1, “Unnatural Analogues of Calcitriol and Uses Thereof” (Vidasym, Inc., priority 2009, published 2018).
Entries after “also recorded” stand apart in the source; their conditions may differ. Where two headings read alike, the source gives them in different places.

How the values were obtained:
[1] = Maximal absorbance wavelength and extinction coefficient (spectrophotometer scan); assay type: physicochemical; details: 100 μM in 50:50 de-ionized water and ethanol; for extinction coefficient: in M-1·cm-1 (unit assumed)
Procedure: To determine the maximal absorbance wavelength (ODmax) and the extinction coefficients for the compounds, each compound is diluted in a 50:50 solution (by volume) of de-ionized water and ethanol at 100 μM and scanned by a spectrophotometer.

[2] = test system: CD14; assay: CD14 expression induction in HL-60 promyelocytic leukemia cells (real-time RT-PCR); assay type: cell-based; details: Homo sapiens; HL-60 cells, 24 h, mRNA normalized to GAPDH; Table 3 summary, some values average of 3 or more determinations; read-out: CD14 EC50
Procedure: (§1) Some compounds were tested in HL-60 promyelocytic leukemia cells and a primary culture of human coronary artery smooth muscle cells (HCASMC) for CYP24A1 induction. It is well documented that CYP24A1 has a VDRE in its promoter region and is a specific target gene of VDR (Meyer et al., 2007, J Biol Chem 282: 22344-22352). […] Compounds also were tested in HCASMC for their effects in inducing VDR. To assess the suitability of a compound for modulating immune responses, compounds were tested in HL-60 for their effects in inducing CD14 expression. To assess the suitability of a compound for treating thrombosis, compounds also were tested in HCASMC for their effects in modulating thrombomodulin and thrombospondin-1.
(§2) Compounds are tested in human HL-60 promyelocytic leukemia cells to assess their potency in inducing the expression of CYP24A1 and CD14. HL-60 cells are cultured in IMDM supplemented with 20% heat-inactivated fetal bovine serum at 37° C. in a humidified 5% CO2-95% air atmosphere. Cells are plated into 6 well plates and treated with test agent for 24 h. Cells are lysed with the addition of 1 mL of Trizol and RNA prepared according to the manufacturer's protocol.
(§3) Real-time reverse transcription-PCR is performed with the forward and reverse PCR primers and 250 nM of the TAQMAN™ probe specifically designed for CYP24A1 or CD14. (A TAQMAN™ probe is comprised of a fluorophore covalently attached to the 5′-end of the oligonucleotide probe and a quencher at the 3′-end.) After the data acquisition, the CYP24A1 or CD14 mRNA expression level is normalized to the GAPDH mRNA level. FIGS. 2A and 2B show the results from a typical CYP24A1 (FIG. 2A) and CD14 (FIG. 2B) expression study.

[3] = test system: normal mice; assay: Hypercalcemic side effect profile and serum PTH in normal mice; assay type: in vivo, Male C57/BL mice; details: for dose at which compound starts to raise serum Ca: i.p. dosing once daily for 3 consecutive days
Procedure: The normal mice model is a convenient and quick way to assess the hypercalcemic side effect profile of compounds. At the same time, data on serum PTH can be collected.
Male C57/BL mice at 18-20 g are dosed with the test agent at 100 al/mouse (concentrations as indicated) i.p. once daily for 3 consecutive days or at 10 ml/kg, p.o. gavage, once daily for 5 days. The animals were harvested 24 h after the last dose by anesthetization with ketamine/xylazine. Blood was collected from the aorta. Serum total calcium was measured using the QuantiChrom Calcium Assay kit and/or the Roche Hitachi 912 Chemistry Analyzer. Serum PTH was measured using a PTH Immunoassay. Vehicle control was 100 l/mouse of 5% EtOH/95% propylene glycol for i.p. dosing or 10 ml/kg of 20% Hydroxypropyl-β-Cyclodextrin for p.o. gavage dosing.
For serum chemistry data, group mean±SEM are presented. Differences between vehicle and compound-treated groups are assessed using a one-way ANOVA followed by a Dunnett's post-hoc test. FIGS. 3A and 3B show the results from a typical p.o. gavage dosing study (n=4-9 per group).

[4] = test system: CYP24A1; assay: CYP24A1 expression induction in HL-60 promyelocytic leukemia cells (real-time RT-PCR); assay type: cell-based; details: Homo sapiens; HL-60 cells, 24 h, mRNA normalized to GAPDH; Table 3 summary, some values average of 3 or more determinations; read-out: CYP24A1 EC50
Procedure: as §1, §2, §3

[5] = test system: VDR; assay: VDR expression induction in primary culture of human coronary artery smooth muscle cells; assay type: cell-based; details: HCASMC, 24 h, Table 4 summary, some values average of 2 or more determinations, read-out: EC50 for VDR induction
Procedure: (§4) Compounds were tested in a primary culture of HCASMC to assess their potency in inducing the expression of CYP24A1 and VDR.
(§5) Primary culture of HCASMC was grown in smooth muscle growth medium SmGM-2 containing 5.5 mM glucose, 5% FBS, 50 μg/ml gentamicin, 50 ng/ml amphotericin-B, 5 μg/ml insulin, 2 ng/ml hFGF, and 0.5 ng/ml hEGF at 37° C. in a humidified 5% CO2-95% air. Cells were grown to >80% confluence and used within five passages.
(§6) Cells were plated into 6 well plates and treated with test agent for 24 h. Cells were lysed with the addition of 1 mL of Trizol and RNA prepared according to the manufacturer's protocol.
(§7) Real-time reverse transcription-PCR was performed with the forward and reverse PCR primers and […] of the TAQMAN™ probe specifically designed for CYP24A1 or VDR. (A TAQMAN™ probe is comprised of a fluorophore covalently attached to the 5′-end of the oligonucleotide probe and a quencher at the 3′-end.) After the data acquisition, the CYP24A1 or VDR mRNA expression level was normalized to the GAPDH mRNA level. […] Group mean±STDEV (standard deviation) are presented.

[6] = test system: thrombomodulin; assay: Thrombomodulin protein in human coronary artery smooth muscle cells (Western blot); assay type: cell-based; details: HCASMC, 48 h, FIG. 21B
Procedure: (§8) Human coronary artery smooth muscle cells (HCASM) were incubated with Vida-5 or Vida-11 at different concentrations for 48 h and then were solubilized in 50 al of SDS-PAGE sample buffer. The protein content in each sample was determined by the bicinchoninic acid protein assay. Samples were resolved by SDS-PAGE using a 4-12% NuPAGE gel, and proteins were electrophoretically transferred to polyvinylidene fluoride membrane for Western blotting. The membrane was blocked for 1 h at 25° C. with 5% nonfat dry milk in phosphate buffered saline Tween-20 (PBS-T) and then incubated with a mouse anti-thrombospondin-1 monoclonal antibody (2,000-fold dilution), or a mouse anti-TM monoclonal antibody (2,000-fold dilution) in PBS-T overnight at 4° C.
(§9) The membrane was washed with PBS-T and incubated with a horseradish peroxidase-labeled anti-mouse antibody for 1 h at 25° C. The membrane was then incubated with Amersham ECL Plus Western Blotting Detection Reagents. Specific bands were visualized by the Multiimage II of Alpha Innotech imaging system. Band intensity was quantified using Spot Denso.

[7] = test system: thrombospondin-1; assay: Thrombospondin-1 protein in human coronary artery smooth muscle cells (Western blot); assay type: cell-based; details: HCASMC, 48 h, FIG. 21A
Procedure: as §8, §9

[8] = test system: CYP24A1; assay: CYP24A1 expression induction in primary culture of human coronary artery smooth muscle cells; assay type: cell-based; details: HCASMC, 24 h, Table 4 summary, some values average of 2 or more determinations, read-out: EC50 for CYP24A1 induction
Procedure: as §4, §5, §6, §7

[9] = test system: uremic rats; details: cited from earlier work
[10] = Slatopolsky et al., 1998, converted from ng/rat

Row | Structure (SMILES) | maximal absorbance wavelength [1] | extinction coefficient [1] | EC50 [2] | dose at which compound starts to raise serum Ca [3] | EC50 [4] | also measured
1 | C[C@@H](OCCC(C)(C)O)C1CCC2/C(=C/C=C3C[C@@H](O)C4(CC4)[C@H](O)C3)CCCC21C (stereo partly drawn) [Vida-1, (4R,8R)-6-((E)-2-((1S,7αS)-1-((R)-1-(3-hydroxy-3-methylbutoxy)ethyl)-7α-methyldihydro-1H-inden-4(2H, 5H, 6H, 7H, 7αH)-ylidene)ethylidene)spiro[2.5]octane-4,8-diol] | 253 nm | 29550 | 22 nM | 0.01 µg/kg | 69 nM | 
2 | C[C@@H](OC[C@H](C)C(C)(C)O)C1CCC2/C(=C/C=C3C[C@@H](O)C4(CC4)[C@H](O)C3)CCCC21C (stereo partly drawn) [Vida-4, (4R,8R)-6-((E)-2-((3αS,7αS)-1-((R)-1-((S)-3-hydroxy-2,3-dimethylbutoxy)ethyl)-7α-methyldihydro-1H-inden-4(2H, 5H, 6H, 7H, 7αH)-ylidene)ethylidene) spiro[2.5]octane-4,8-diol] | 253 nm | 23610 | 31 nM |  | 190 nM | fold less potent in raising serum Ca than Vida-1 ([3]; i.p. dosing, FIG. 4): at least 100 fold
3 | CCC(O)(CC)CCCO[C@H](C)C1CCC2/C(=C/C=C3C[C@@H](O)C4(CC4)[C@H](O)C3)CCCC21C (stereo partly drawn) [Vida-20, (4R,8R)-6-((E)-2-((1S,7αS)-1-((R)-1-(4-ethyl-4-hydroxyhexyloxy)ethyl)-7α-methyldihydro-1H-inden-4(2H, 5H, 6H, 7H, 7αH)-ylidene)ethylidene)spiro[2.5]octane-4,8-diol] | 253 nm | 23340 | 1.6 nM | 1 µg/kg | 6.7 nM | 
4 | C=C1[C@H](O)CC(=C/C=C2\CCCC3(C)C2CCC3[C@@H](C)OCCCC(O)(CC)CC)C[C@H]1O (stereo partly drawn) [Vida-21, (1R,3R)-5-((E)-2-((1S,7αS)-1-((R)-1-(4-ethyl-4-hydroxyhexyloxy)ethyl)-7α-methyldihydro-1H-inden-4(2H, 5H, 6H, 7H, 7αH)-ylidene)ethylidene)-2-methylenecyclohexane-1,3-diol] | 253 nm | 58710 | 1.1 nM | 0.1 µg/kg | 0.8 nM | EC50 [5]: 2.5 nM; thrombomodulin protein expression [6]: induce; also recorded: increased; thrombospondin-1 protein expression [7]: suppress; also recorded: significantly reduced; EC50 [8]: 1.8 nM
5 | C=C1[C@H](O)CC(=C/C=C2\CCC[C@]3(C)[C@@H]([C@H](C)COc4ccccc4)CC[C@@H]23)C[C@H]1O [Vida-36, (1R,3R)-5-((E)-2-((1R,3αS,7αR)-7α-methyl-1-((S)-1-phenoxypropan-2-yl)dihydro-1H-inden-4(2H, 5H, 6H, 7H, 7αH)-ylidene)ethylidene)-2-methylenecyclohexane-1,3-diol] | 254 nm | 26850 | 34000 nM |  | 249000 nM | 
6 | C=C1[C@H](O)CC(=C/C=C2\CCCC3(C)C2CCC3[C@@H](C)COc2cccc(C(C)(C)O)c2)C[C@H]1O (stereo partly drawn) [Vida-37, (1R,3R)-5-((E)-2-(1-((R)-1-(3-(2-hydroxypropan-2-yl)phenoxy)propan-2-yl)-7α-methyldihydro-1H-inden-4(2H, 5H, 6H, 7H, 7αH)-ylidene)ethylidene)-2-methylenecyclohexane-1,3-diol] | 254 nm | 25720 | 12 nM | 10 µg/kg | 6.1 nM | 
7 | C=C1[C@H](O)CC(=C/C=C2\CCCC3(C)C2CCC3[C@@H](C)CSc2cccc(C(C)(C)O)c2)C[C@H]1O (stereo partly drawn) [Vida-43, (1R,3R)-5-((E)-2-(1-((R)-1-(3-(2-hydroxypropan-2-yl)phenylthio)propan-2-yl)-7α-methyldihydro-1H-inden-4(2H, 5H, 6H, 7H, 7αH)-ylidene)ethylidene)-2-methylenecyclohexane-1,3-diol] | 254 nm | 43580 | 63 nM |  | 6.9 nM | 
8 | C[C@@H](COc1cccc(C(C)(C)O)c1)[C@H]1CC[C@H]2/C(=C/C=C3C[C@@H](O)C4(CC4)[C@H](O)C3)CCC[C@]12C [Vida-57, (4R,8R)-6-((E)-2-(1-((R)-1-(3-(2-hydroxypropan-2-yl)phenoxy)propan-2-yl)-7-methyldihydro-1H-inden-4(2H,5H,6H, 7H,7αH)-ylidene)ethylidene)spiro[2.5]octane-4,8-diol] | 253 nm | 49670 | 21 nM |  | 36 nM | 
9 | C[C@@H](CSc1cccc(C(C)(C)O)c1)C1CCC2/C(=C/C=C3C[C@@H](O)C4(CC4)[C@H](O)C3)CCCC21C (stereo partly drawn) [Vida-58, (4R,8R)-6-((E)-2-(1-((R)-1-(3-(2-hydroxypropan-2-yl)phenylthio)propan-2-yl)-7α-methyldihydro-1H-inden-4(2H,5H,6H, 7H, 7αH)-ylidene)ethylidene)spiro[2.5]octane-4,8-diol] |  |  | 125 nM |  | 49 nM | 
10 | C=C1/C(=C\C=C2/CCC[C@]3(C)[C@@H]([C@H](C)CCCC(C)(C)O)CC[C@@H]23)C[C@@H](O)C[C@@H]1O [calcitriol, 1,25-dihydroxyvitamin D3] |  |  |  |  |  | dose at which compound raises serum Ca [9, 10]: ~0.01 µg/kg; dose at which compound starts to suppress serum PTH [9, 10]: ~0.02 µg/kg; dose at which compound raises serum Ca ([9]; Slatopolsky et al., 1998): 4 ng/rat; dose at which compound starts to suppress serum PTH ([9]; Slatopolsky et al., 1998): 8 ng/rat
